Legend:
[1] = system: CD3/CD28 (TransAct) activated PBMCs; test: PBMC cytokine release by CBA, Inhibition format (peptide with CD3/CD28 TransAct activator); assay type: cell-based, human; set-up: key to Inhibition by Analyte IL-1b / Inhibition by Analyte IL-2 / Inhibition by Analyte TNF / Inhibition by Analyte IP-10 / Inhibition by Analyte IL-10: X = a hit with significant activation or inhibition of relevant cytokine release
Experimental: (§1) CBA (Cytometry) experiment looking at pro-inflammatory cytokines produced by PBMCs treated with secreted peptides.
(§2) Peripheral Blood Mononuclear Cells were seeded+/−the T-cell activator […] and +/−peptides for 24-48 hours. Cytokines were measured from the supernatant after incubation by CBA Cytometer.
(§3) Thawing PBMCs: PBMCs were thawed by pre-warming TexMACS media (Miltenyi Biotech) in 20 ml aliquots-1-50 ml conical per donor. After the media was warmed to 37° C., cells were removed from liquid nitrogen and brought to the tissue culture hood. For each donor, 1 ml of media from the warmed aliquot was added to the frozen vial and mixed up and down. The media plus thawed cells were then added back to the 50 ml conical. This was repeated until all the cells were thawed and added to the 50 ml tube. Continue with other donors if used. Spin cells for 5 min at 400×g. Supernatant was aspirated and cells resuspended at ~10*10^6 cells/ml (see vial for cell number).
(§4) PBMC Plating: Frozen PBMCs from normal, healthy, human volunteers (StemCell Technologies) were thawed and plated at 250,000 cells/well. After PBMCs were thawed and resuspended at […], cells were then counted (Countess III, Thermo Scientific) and adjusted based on counts to […]. Take the number of PBMCs determined by number of wells for the experiment, for example, 10 wells would need 2.5*10^6 cells total or 0.250 ml. The cells needed for the experiment are then transferred to another conical tube. Warmed TexMACS media is added so that the final concentration is 250,000 cells/190 ul media, for example, 10 wells would need 1.9 ml (190 ul×10 wells) of media total minus 0.250 ml of cells (1.9 ml-0.250 ml) or 1.65 ml of media added to the 0.250 ml of cells. Add 190 ul of cells plus media to the 96 well U-bottom plate. Place in incubator until dilutions are made and ready.
(§5) Peptide Dilutions: Ideally, all peptides should be at a starting concentration of at least 10 mM, especially for those in DMSO (ATCC) to reach a final concentration of 1 uM (H2O) or 0.5 uM (DMSO). Dilutions of all test articles should be made at 20× the final concentration, for example, a final concentration of 1 uM peptide would need to be made at 20 uM.
(§6) Reagent Dilution: Dilutions are made in TexMACS media, enough for 10 ul/well in triplicate (30 ul of a 20×). Activator—CD3/CD28 (TransAct; Miltenyi Biotech) or cytokine will be at 21× and added after the 45-minute incubation with peptides. Be sure to include relevant controls—Positive: TransAct+Cells, Negative: Vehicle+Cells. Dilutions should also be made in a ultra-low binding plate (Corning).
(§7) Assay Procedure: Peptide Treatment: Start assay by thawing the cells and plating in a 96 well, U-bottom tissue culture plate (Corning) as described above. Cell plates are placed in a tissue culture incubator (5% CO2, 37° C.). While cells are in the incubator, start making dilutions (optimally 1 hr or less) as described above. Cell plates are removed from the incubator and 10 ul of the 20× dilutions are added to the relevant wells. After the addition of inhibitors, cell plates are placed in the tissue culture incubator for 45 minutes. The plates are removed from the incubator and 10 ul of […] TransAct is added to the relevant wells*. Plates are then returned to the incubator and incubated for 24 hours. After 24 hours, plates are spun for 5 minutes at 400×g. * Activation: This assay can be run in two different formats—Activation and Inhibition. The procedure is the same except no TransAct is needed in the peptide wells for Activation. TransAct is only needed in the control wells. The purpose of this procedure is to determine the possible response from peptides alone.
(§8) Cytometric BeadArray (CBA): After the spin, supernatants (~150 ul) are transferred to a new, ultra-low binding U-bottom plate. Supernatants are then frozen at −20° C. until thawed for CBA (BD) to determine levels of human IL-2, TNFa, IL-1b, IP-10, IL-10, and IFNg. […]

[2] = system: Peripheral Blood Mononuclear Cells; test: PBMC cytokine release by CBA, Activation format (peptide alone); assay type: cell-based, human; set-up: key: X = a hit with significant activation or inhibition of relevant cytokine release; settings: peptide applied to PBMCs alone; supernatant CBA after 24 hours
Experimental: as §1, §2, §3, §4, §5, §6, §7, §8

[3] = peptide applied with anti-CD3/CD28 T-cell activator, supernatant CBA after 24 hours

Molecule	Inhibition by Analyte IL-1b [1, 3]	Inhibition by Analyte TNF [1, 3]	Activation by Analyte IP-10 [2]	further results
SEQ ID NO: 35558: target protein of the Sequence Listing, applied as peptide to PBMCs (MTAFGLGIPTFLVMQPSGSQPRFPALTQNGVALVRTPLTSVYLRVRICRVLGPRSQPS; listed as Homo sapiens)	X	X	X	Activation by Analyte IL-10 [2]: X
SEQ ID NO: 37394: target protein of the Sequence Listing, applied as peptide to PBMCs (MESRTLLLLFSGAVALIQTWADYNYNQGRNDLIFTLQLWKRQ; listed as Homo sapiens)	X	–	–	–
SEQ ID NO: 34837: target protein of the Sequence Listing, applied as peptide to PBMCs (MRSPLSASALLLWSSSVARAFSSPSLLMAVPSPTCSRY; listed as Homo sapiens)	X	X	–	Inhibition by Analyte IL-10 [1, 3]: X; Inhibition by Analyte IP-10 [1, 3]: X
SEQ ID NO: 33934: target protein of the Sequence Listing, applied as peptide to PBMCs (MSFDHPEKNGPWPADPINLPSHG; listed as Homo sapiens)	–	X	–	Inhibition by Analyte IL-2 [1, 3]: X
SEQ ID NO: 37043: target protein of the Sequence Listing, applied as peptide to PBMCs (MSEVATLLFSQTALASLESVHPAGHKLWMRNLRQVTSP; listed as Homo sapiens)	–	X	–	Inhibition by Analyte IL-2 [1, 3]: X
SEQ ID NO: 37375: target protein of the Sequence Listing, applied as peptide to PBMCs (MARPLSLAAAGAPDLLFTALCSLLIEAQPLRPFDLQVLGDPQPRARTP; listed as Homo sapiens)	–	–	–	Activation by Analyte IL-2 [2]: X
SEQ ID NO: 33885: Target Protein validated as an anti-inflammatory immune modulator (VAEPRRGHLKAALASLGGAAPAAATNGSPPLFK; listed as Homo sapiens)	X	X	–	release of TNF-alpha from activated PBMCs ([1]; CD3/CD28 (TransAct) activated PBMCs, FIG. 1): significantly blocks; release of IL-1b from activated PBMCs ([1]; CD3/CD28 (TransAct) activated PBMCs, FIG. 2): does not block; Inhibition by Analyte IL-2 [1, 3]: X; Inhibition by Analyte IP-10 [1, 3]: X
SEQ ID NO: 37363: target protein of the Sequence Listing, applied as peptide to PBMCs (MGGKSWLFFYSLVFCALLPLPRREDPFKLF; listed as Homo sapiens)	X	–	–	–
SEQ ID NO: 37192: target protein of the Sequence Listing, applied as peptide to PBMCs (MVSHRKDWRRVNLRFSSCLLLSICLDDKPSADELCFWTDHGRSQLTCPSLGVSQGHARSS; listed as Homo sapiens)	–	–	X	–
SEQ ID NO: 38042: target protein of the Sequence Listing, applied as peptide to PBMCs (MWWKTPCWWTPSTTATSSSAEARSCGRLLKSMAG; listed as Homo sapiens)	–	–	X	–
SEQ ID NO: 33678: target protein of the Sequence Listing, applied as peptide to PBMCs (METSCSLWVSSELFCRSVKVFFCLLALHLSALPHSSWTQDKNLGLAGMVELK; listed as Homo sapiens)	–	–	X	–
SEQ ID NO: 35373: target protein of the Sequence Listing, applied as peptide to PBMCs (LDFIRAFLLLLVASVPGKIGSQNLTAQRPPVATSFLQMESSEPTVRK; listed as Homo sapiens)	X	X	–	Inhibition by Analyte IL-2 [1, 3]: X; Inhibition by Analyte IP-10 [1, 3]: X
SEQ ID NO: 36902: target protein of the Sequence Listing, applied as peptide to PBMCs (peptide, listed as Homo sapiens) MQRLPAAFFRSFAAQGLGESVHINTPTSLSLRGRPFISSSGPGARARVTCAPCLHAARILCCFWRGLHR	–	–	X	–
SEQ ID NO: 33741: target protein of the Sequence Listing, applied as peptide to PBMCs (peptide, listed as Homo sapiens) MSYLPTNPPGSILTCWLGVSLGSHRSARGGSTIYGRLLPRRKDVWFSQAKDVPKYRGLLYLQS	–	–	X	–
SEQ ID NO: 37047: target protein of the Sequence Listing, applied as peptide to PBMCs (peptide, listed as Homo sapiens) MMAQKSKFRVLFMSDPHGTAMPLTSAILESSRASLAAKQEDKCFTDIRNLKWKHFLEHTKQPP	–	–	X	–
SEQ ID NO: 37477: target protein of the Sequence Listing, applied as peptide to PBMCs (peptide, listed as Homo sapiens) MSCGSRRGPSLASSLAWLQLQSGTRPFCSSSPPYFLSHGRRIPFSHPRKESALRATKEPRTHRTNTSLADLPSPAPAHL	–	–	–	Activation by Analyte IL-1b [2]: X
SEQ ID NO: 38393: target protein of the Sequence Listing, applied as peptide to PBMCs (peptide, listed as Homo sapiens) VALSLLTSQGRQRRAGPSTAFAALPATVATFSAMTESESLRTSRHADTALARVRRGAKFRGQARTRYCARARSHRFTPPSGA	–	–	X	–
SEQ ID NO: 33169: target protein of the Sequence Listing, applied as peptide to PBMCs (peptide, listed as Homo sapiens) MCHKGWHGPGVPHHVAFTPCKARLRPATQCQAHSSPRRKMVQAGSIPLAAASGRLCLTHAGWWRGAS	–	–	X	–
SEQ ID NO: 35480: target protein of the Sequence Listing, applied as peptide to PBMCs (peptide, listed as Homo sapiens) LRPRSAAFAPRYTRLVMRRSSRSFRLQCTGFPSSSAQSISAHLSNSMPSSLLTISRCPGMFAVRCPL	–	–	X	–

Reference: patent US20260227408A1, “Compositions and Methods for Modulation of Immune Responses” (Flagship Pioneering Innovations VI, LLC, priority 2022, published 2026)
